Experimental findings from US20220233469A1, “METHODS, COMPOSITIONS AND DEVICES FOR TREATING NEUROINFLAMMATORY CONDITIONS” (ALYRA BIOTECH PTY LTD, priority 2019, published 2022) are described below.

In one series the target is T1, Human TLR7 (Homo sapiens, UniProt Q9NYK1).
T1 construct: expressed in transfected cells; host or cells: HEK293
T1 sequence (Q9NYK1 27-1049): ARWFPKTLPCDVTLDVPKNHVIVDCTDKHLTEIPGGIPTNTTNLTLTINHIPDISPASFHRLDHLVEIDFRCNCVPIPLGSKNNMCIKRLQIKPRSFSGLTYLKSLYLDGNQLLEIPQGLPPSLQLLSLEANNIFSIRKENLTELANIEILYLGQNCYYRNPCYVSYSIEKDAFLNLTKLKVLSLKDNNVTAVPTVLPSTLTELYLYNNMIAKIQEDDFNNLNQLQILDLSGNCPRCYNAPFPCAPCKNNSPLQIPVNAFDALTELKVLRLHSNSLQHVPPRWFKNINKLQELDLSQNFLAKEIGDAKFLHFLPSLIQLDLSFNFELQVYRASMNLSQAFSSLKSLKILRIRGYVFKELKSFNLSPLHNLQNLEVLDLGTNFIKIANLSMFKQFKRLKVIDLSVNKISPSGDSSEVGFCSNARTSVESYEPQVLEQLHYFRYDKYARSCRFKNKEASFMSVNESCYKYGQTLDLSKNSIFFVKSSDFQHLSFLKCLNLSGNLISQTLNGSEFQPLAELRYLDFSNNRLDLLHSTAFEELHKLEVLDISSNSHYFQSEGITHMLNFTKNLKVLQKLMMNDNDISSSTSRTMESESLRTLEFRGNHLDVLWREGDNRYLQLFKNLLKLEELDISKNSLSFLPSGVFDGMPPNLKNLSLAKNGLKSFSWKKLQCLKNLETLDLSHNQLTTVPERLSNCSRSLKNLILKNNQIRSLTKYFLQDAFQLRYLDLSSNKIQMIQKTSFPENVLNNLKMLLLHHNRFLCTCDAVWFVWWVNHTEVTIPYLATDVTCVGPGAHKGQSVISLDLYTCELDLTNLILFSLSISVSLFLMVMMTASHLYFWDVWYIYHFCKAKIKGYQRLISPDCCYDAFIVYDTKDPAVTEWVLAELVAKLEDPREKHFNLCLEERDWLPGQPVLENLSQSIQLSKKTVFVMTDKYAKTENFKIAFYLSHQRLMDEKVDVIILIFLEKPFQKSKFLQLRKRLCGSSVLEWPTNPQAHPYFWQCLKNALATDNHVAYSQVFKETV
As to the kind of experiment: Human TLR antagonist screening: NF-κB activation in HEK293 cells, TLR7. Format: cell-based. The following applies: antagonist mode; test article 1 μM, +CL307 10 ng/ml; No Sample 13, Control- 1. The method, then:
Toll-Like Receptor (TLR), NOD-Like Receptor (NLR) and C-Type Lectin Receptor (CLR) stimulation were tested by assessing NF-κB activation in HEK293 cells expressing a given TLR, NLR or CLR. The activity of the test articles was tested at one concentration and compared to control ligands. These steps were performed in triplicate. […] CL307 at 1 μg/mL Antagonist: 10 ng/mL. In a 96-well plate (200 μL total volume) containing the appropriate cells (50,000-75,000 cells/well), 20 μL of the test article or the positive control ligand was added to the wells. For the antagonist assay, the test article was incubated with the cells, at 37° C. with 5% CO2, for 30 minutes prior to the addition of the positive control ligand to the wells. The media added to the wells was designed for the detection of NF-κB induced SEAP expression.

A further series has as its system HEK293/Null1. Nature of the series: TLR-/NLR- control cell line HEK293/Null1 stimulated with TNFa. Format: cell-based, human. The following applies: stimulated with TNFa at 10 ng/mL. As to the method:
(§1) Toll-Like Receptor (TLR), NOD-Like Receptor (NLR) and C-Type Lectin Receptor (CLR) stimulation were tested by assessing NF-κB activation in HEK293 cells expressing a given TLR, NLR or CLR. The activity of the test articles was tested at one concentration and compared to control ligands. These steps were performed in triplicate. In a 96-well plate (200 μL total volume) containing the appropriate cells (50,000-75,000 cells/well), 20 μL of the test article or the positive control ligand was added to the wells. For the antagonist assay, the test article was incubated with the cells, at 37° C. with 5% CO2, for 30 minutes prior to the addition of the positive control ligand to the wells. The media added to the wells was designed for the detection of NF-κB induced SEAP expression. After a 16-24 hr incubation the optical density (OD) was read at 650 nm on a Molecular Devices SpectraMax 340PC absorbance detector.

The subject of a further series is HEK293/Null2. Nature of the series: TLR-/NLR- control cell line HEK293/Null2 stimulated with TNFa. Format: cell-based, human. The following applies: stimulated with TNFa at 10 ng/mL. As to the method:
as §1

The test system of a further series is dorsal horn astrocytes. As to the kind of experiment: Activation of dorsal horn astrocytes (GFAP immunofluorescence) after intrauterine LPS in mice. The following applies: for LPS-induced activation of spinal astrocytes (GFAP staining, dorsal horn): intrauterine, given with LPS (100 ug/kg) once per estrus cycle over three cycles, Amitriptyline 28 ug/kg, TAK-242 36 ug/kg. Format: in vivo, mouse. From the text: (§2) We first recognised that neuroinflammatory conditions of the nervous system may be, at least in part, due to activation of the innate immune system within the uterus resulting in activation of glial cells in the dorsal horn of the spinal cord. To model this in mice, a study was undertaken administering LPS (lipopolysaccharide), a potent immune activator, to the uterus of mice once per estrus cycle over three cycles.
(§3) Studies were also undertaken to investigate whether a small dose of amitriptyline, an inhibitor of the pattern recognition receptors TLR, NOD, CLR, RIG-1 and MDA-5, administered with LPS within the uterus could prevent LPS-induced activation of spinal glial cells. To confirm that the amitriptyline was acting, at least in part, by blocking TLRs, an investigation was also conducted on mice given a small dose of pure TLR4 blocker-TAK-242—with LPS.
(§4) The Nonsurgical Embryo Transfer Device (Paratech, USA) was used to allow insertion of fluid into the uterus with brief, mild discomfort to the mouse, and no need for anaesthesia. Following three estrus cycles, glial activation in the dorsal horn of the spinal cord was measured using immunofluorescence. Activation of dorsal horn astrocytes was assessed using GFAP. Activation of dorsal horn microglia was assessed using Iba1. We compared the activation of spinal glia in mice with intrauterine administration of saline only, saline and LPS (100 ug/kg), saline LPS (100 ug/kg) and Amitriptyline (28 ug/kg), and saline LPS (100 ug/kg) and TAK-242 (36 ug/kg).
(§5) The spinal cord was assessed using immunohistochemistry techniques across levels T10, T11, T12, T13, L1, L2, L3, L4, L5, L6, S1 and S2 where T represents the thoracic segment of the spinal cord, L represents the lumbar segment of the spinal cord and S represents the sacral segment of the spinal cord. The regions of interest in the dorsal horn include Laminae I, II, III and IV. Changes in spinal glial reactivity are causally linked to all known models of neuroinflammatory medical conditions.

The next series has as its system dorsal horn microglia. Nature of the series: Activation of dorsal horn microglia (Iba1 immunofluorescence) after intrauterine LPS in mice. Format: in vivo, mouse. The following applies: for LPS-induced activation of spinal microglia (Iba1 staining, dorsal horn): intrauterine, given with LPS (100 ug/kg) once per estrus cycle over three cycles, Amitriptyline 28 ug/kg, TAK-242 36 ug/kg.
Description: as §2, §3, §4, §5

A further series has as its system spinal glial cells. Nature of the series: Spinal glial activation after intrauterine LPS in mice. Format: in vivo, mouse.
Description: as §2, §3, §4, §5

Series [1] in a line: Facial Grimace Score after intrauterine LPS in mice. Format: in vivo, mouse. The following applies: mice, 24 hours following the final LPS stimulation.
Where [2] appears, read: intrauterine LPS (100 ug/kg) compared with saline.

“Also recorded” adds a separate entry of the source.

As to `CNCCC=C1c2ccccc2CCc2ccccc21` [Nortriptyline], at Human TLR7, the “Fold Induction” value was “slight potentiating effect”. Moreover, the “effect on control cell line HEK293/Null1” value with HEK293/Null1 is reported as “slight inhibitory effect”. Besides, the “effect on control cell line HEK293/Null2” value in the series on HEK293/Null2 is “slight inhibitory effect”.

For the compound `CCOC(=O)C1=CCCC[C@H]1S(=O)(=O)Nc1ccc(F)cc1Cl` [TAK-242], the “LPS-induced activation of spinal astrocytes (GFAP staining, dorsal horn)” value in the series with dorsal horn astrocytes was “prevented LPS-induced activation of spinal astrocytes and microglia”; with dorsal horn astrocytes (listed as TAK242), “blocked the impact of intrauterine LPS at multiple levels of the spinal cord and reduced astrocytic reactivity to below basal levels; also recorded: blocks the impact of intrauterine LPS at multiple levels of the spinal cord and appears to reduce astrocytic reactivity to below basal levels”. The “integrated density of GFAP staining (activated astrocytes within the dorsal horn)” value with dorsal horn astrocytes (level of T12, intrauterine LPS with Amitriptyline or TAK-242 vs LPS, p=0.0002) is given as “significantly reduce LPS effect”. In addition, the “LPS-induced activation of spinal microglia (Iba1 staining, dorsal horn)” value with dorsal horn microglia was “prevented LPS-induced activation of spinal astrocytes and microglia; also recorded: reduced spinal activation of microglia below baseline levels”; in the series on dorsal horn microglia (listed as TAK242), “blocked the impact of intrauterine LPS at multiple levels of the spinal cord and reduced microglia reactivity to basal levels; also recorded: appears to reduce microglia reactivity to basal levels”. In addition, the “LPS-induced spinal glial activation” value in the series on spinal glial cells (intrauterine co-administration with LPS (100 ug/kg), Amitriptyline 28 ug/kg, TAK-242 36 ug/kg) was “effect was also prevented; also recorded: block spinal glial activation following intrauterine administration of LPS”. Moreover, the “Facial Grimace Score” value in series [1] (intrauterine LPS with Amitriptyline or TAK242) is “reduced grimace scores non-significantly”.

As to lipopolysaccharide [LPS], the “activation of spinal astrocytes (GFAP staining)” value in the series on dorsal horn astrocytes (setting [2]) is “induced activation of spinal astrocytes and microglia; also recorded: substantial increase in GFAP astrocyte staining throughout multiple levels of the spinal cord; also recorded: induced activation of astrocytes at multiple levels of the spinal levels compared with saline”. Also, in the series on dorsal horn microglia (setting [2]), the “activation of spinal microglia (Iba1 staining)” value is “induced activation of spinal astrocytes and microglia; also recorded: localised increase in Iba1 microglial staining throughout select levels of the spinal cord; also recorded: induced activation of microglia with inconsistent effect across levels”. For the same compound, in the series with spinal glial cells (intra-uterine LPS), the “activation of spinal glial cells” value is “activate spinal glial cells, including astrocytes and microglia”. In addition, the “Facial Grimace Score” value in series [1] (intrauterine LPS vs saline) is given as “caused a significant increase in the presentation of Grimace behaviours in animals”.
